Source: publication PMC2744590 (Biochimica et biophysica acta, 2009)
Read-outs that look alike come from different tables or passages of the source.

Experiments:
[1] = molecular target: α4 with wild-type β2 nAChR, (α4)2(β2)3 (Homo sapiens, UniProt P17787+P43681); assay: Two-electrode voltage clamp of receptors expressed in Xenopus oocytes; assay type: cell-based
[2] = molecular target: α4 with β2S113R nAChR (Homo sapiens, UniProt P17787+P43681, S138R); assay: as above; assay type: cell-based
[3] = molecular target: α4 with β2F119Q nAChR (Homo sapiens, UniProt P17787+P43681, F144Q); assay: as above; assay type: cell-based
[4] = molecular target: α4β4 receptor; settings: read-out: IC50 inhibiting binding of [3H]epibatidine; cited from earlier work
[5] = tested on: α4β2 and α4β4 nAChRs; settings: range over both agonists and both receptors; cited from earlier work
[6] = molecular target: nicotinic (α4)2(β2)3 receptors; settings: cited from earlier work
[7] = molecular target: human α4β2 nAChRs (Homo sapiens, UniProt P17787+P43681); assay: Photoaffinity labeling; assay type: binding; settings: ∼1 nM probe, 254 nm, α4 or β2 subunit
[8] = molecular target: rat α4β4 nAChRs (Rattus norvegicus, UniProt P09483+P12392); assay type: binding
[9] = molecular target: α4β2F119Q, α4β2S113R and wild-type (WT) hα4β2 receptors; design: species or system human; settings: read-out: [3H]epibatidine binding affinities; range over α4β2F119Q, α4β2S113R and WT hα4β2 transiently expressed in HEK 293 cells
[10] = molecular target: α4β2F119Q receptors (Homo sapiens, UniProt P17787+P43681, F144Q); assay type: binding; settings: preincubation with 100 nM epibatidine
[11] = read-out: EC50 of activation, 5 oocytes

rat α4β4 nAChRs, sequence (P09483 31-630): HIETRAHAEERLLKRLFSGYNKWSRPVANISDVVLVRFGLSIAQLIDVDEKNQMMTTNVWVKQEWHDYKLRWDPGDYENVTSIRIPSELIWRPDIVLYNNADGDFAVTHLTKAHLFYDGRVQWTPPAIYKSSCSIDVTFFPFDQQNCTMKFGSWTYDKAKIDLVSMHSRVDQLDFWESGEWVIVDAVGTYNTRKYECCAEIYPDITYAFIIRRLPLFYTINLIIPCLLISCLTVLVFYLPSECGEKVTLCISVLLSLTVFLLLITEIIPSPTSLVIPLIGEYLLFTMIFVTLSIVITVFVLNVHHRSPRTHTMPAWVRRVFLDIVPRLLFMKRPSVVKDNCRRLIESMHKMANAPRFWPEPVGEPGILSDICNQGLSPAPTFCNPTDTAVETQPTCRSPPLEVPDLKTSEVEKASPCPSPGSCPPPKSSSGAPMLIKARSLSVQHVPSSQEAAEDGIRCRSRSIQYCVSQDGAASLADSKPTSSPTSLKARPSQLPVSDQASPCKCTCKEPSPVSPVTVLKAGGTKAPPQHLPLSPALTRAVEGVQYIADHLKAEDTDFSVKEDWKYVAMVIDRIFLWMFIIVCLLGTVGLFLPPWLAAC
rat α4β4 nAChRs, sequence (P12392 25-495): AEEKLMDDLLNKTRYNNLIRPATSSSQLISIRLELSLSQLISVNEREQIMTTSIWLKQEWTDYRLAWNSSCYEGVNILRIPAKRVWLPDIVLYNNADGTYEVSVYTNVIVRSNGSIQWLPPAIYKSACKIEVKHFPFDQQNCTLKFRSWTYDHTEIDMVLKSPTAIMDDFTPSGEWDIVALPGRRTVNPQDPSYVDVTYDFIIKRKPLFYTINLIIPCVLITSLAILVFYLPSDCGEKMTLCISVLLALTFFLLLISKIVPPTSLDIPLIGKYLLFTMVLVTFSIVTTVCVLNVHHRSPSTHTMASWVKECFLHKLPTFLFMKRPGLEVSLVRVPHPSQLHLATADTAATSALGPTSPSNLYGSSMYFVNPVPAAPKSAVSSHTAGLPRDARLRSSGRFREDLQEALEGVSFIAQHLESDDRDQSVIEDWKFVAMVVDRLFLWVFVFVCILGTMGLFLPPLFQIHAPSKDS
human α4β2 nAChRs, sequence (P17787 26-502): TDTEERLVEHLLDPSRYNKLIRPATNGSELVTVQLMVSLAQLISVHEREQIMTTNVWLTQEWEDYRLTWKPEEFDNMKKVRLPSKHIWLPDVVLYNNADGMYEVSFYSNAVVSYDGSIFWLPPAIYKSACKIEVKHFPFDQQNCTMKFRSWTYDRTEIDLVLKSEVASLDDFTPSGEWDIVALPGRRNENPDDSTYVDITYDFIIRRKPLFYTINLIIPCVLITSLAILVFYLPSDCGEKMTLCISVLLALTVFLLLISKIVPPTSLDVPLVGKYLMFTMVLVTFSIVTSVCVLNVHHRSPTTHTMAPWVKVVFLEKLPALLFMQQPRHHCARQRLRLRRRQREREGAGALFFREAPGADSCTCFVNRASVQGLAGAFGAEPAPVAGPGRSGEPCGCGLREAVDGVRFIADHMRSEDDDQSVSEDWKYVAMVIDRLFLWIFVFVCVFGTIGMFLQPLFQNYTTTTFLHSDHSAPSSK
human α4β2 nAChRs, sequence (P43681 29-627): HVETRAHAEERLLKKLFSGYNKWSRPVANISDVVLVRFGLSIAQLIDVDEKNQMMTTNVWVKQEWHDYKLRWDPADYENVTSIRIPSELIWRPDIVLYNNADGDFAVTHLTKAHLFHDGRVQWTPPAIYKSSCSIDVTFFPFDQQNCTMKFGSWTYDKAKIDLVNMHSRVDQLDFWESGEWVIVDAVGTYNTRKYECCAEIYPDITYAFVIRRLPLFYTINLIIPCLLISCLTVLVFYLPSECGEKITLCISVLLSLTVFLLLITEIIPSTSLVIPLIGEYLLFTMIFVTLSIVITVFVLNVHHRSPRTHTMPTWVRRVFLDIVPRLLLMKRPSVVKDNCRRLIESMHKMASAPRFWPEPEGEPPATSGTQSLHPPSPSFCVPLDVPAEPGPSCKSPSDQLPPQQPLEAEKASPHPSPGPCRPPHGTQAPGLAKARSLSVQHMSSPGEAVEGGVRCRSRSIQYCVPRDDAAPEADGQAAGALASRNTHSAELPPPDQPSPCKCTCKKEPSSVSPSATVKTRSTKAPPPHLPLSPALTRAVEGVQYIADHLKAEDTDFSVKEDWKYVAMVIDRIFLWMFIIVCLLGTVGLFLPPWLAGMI
α4 with β2F119Q nAChR, sequence (P43681 29-627, stated change not applied): as the sequence (P43681 29-627) above
α4 with β2F119Q nAChR, sequence (P17787 26-502 F144Q): as the sequence (P17787 26-502) above, with F119Q counted along it
α4 with β2S113R nAChR, sequence (P43681 29-627 limits assumed): as the sequence (P43681 29-627) above
α4 with β2S113R nAChR, sequence (P17787 26-502 S138R): as the sequence (P17787 26-502) above, with S113R counted along it
α4 with wild-type β2 nAChR, (α4)2(β2)3, sequence (P43681 29-627 limits assumed): as the sequence (P43681 29-627) above
α4 with wild-type β2 nAChR, (α4)2(β2)3, sequence (P17787 26-502): as the sequence (P17787 26-502) above
α4β2F119Q receptors, sequence (P43681 29-627, stated change not applied): as the sequence (P43681 29-627) above
α4β2F119Q receptors, sequence (P17787 26-502 F144Q): as the sequence (P17787 26-502) above, with F119Q counted along it

## Cl.Cl.Ic1cncc(OC[C@@H]2CCN2)c1 [5I-A-85380, 5-iodo-A-85380 dihydrochloride]
[1]; [11]
  EC50: 23 ± 2 nM
[2]; read-out: EC50 of activation, 7 oocytes
  EC50: 30 ± 7 nM
[3]; [11]
  EC50: 338 ± 77 nM
[4]
  IC50: 24 nM
[5]
  binding affinity: 0.062 to 24 nM
[6]
  EC50: ~10 nM
[6]; compared with ACh
  maximal response: larger than that for ACh itself

## Ic1ccc(C2CC3CCC2N3)cn1 (stereo not shown) [iodoepibatidine]
[5]
  binding affinity: 0.062 to 24 nM

## [^125I]epibatidine
[7]
  pattern of photoincorporation: very little if any photoincorporation

## CN1CCC[C@H]1c1cccnc1 [nicotine]
[8]; 15 min preincubation with 100 μM nicotine or 100 nM epibatidine
  effect on labeling by radiolabeled agonist: complete elimination of labeling
[8]; co-application of 100 μM nicotine, γ-counting of excised gel bands
  reduction of [125I]epibatidine labeling of β4 subunit and β4′ fragment: > 50%

## Clc1ccc(C2CC3CCC2N3)cn1 (stereo not shown) [[^3H]epibatidine]
[9]
  Kd: 0.4 to 0.7 nM

## [125I]c1cncc(OCC2CCN2)c1 (stereo not shown) [5[^125I]A-85380]
[8]; 1 nM probe, 254 nm, 30 or 15 min
  pattern of photoincorporation: incorporated selectively into the β4 subunit
[7]
  pattern of photoincorporation: very little if any photoincorporation

## Clc1ccc(C2CC3CCC2N3)cn1 (stereo not shown) [epibatidine]
[8]
  effect on labeling by radiolabeled agonist: complete elimination of labeling
[10]
  effect on [125I]epibatidine labeling in the β2F119Q subunit: completely eliminated labeling

## CC(=O)OCC[N+](C)(C)C [ACh, Acetylcholine chloride]
[1]; 1 mM ACh, single oocyte trace
  actual amplitude of the ACh response: -0.8 μA
[2]; 1 mM ACh, single oocyte trace
  actual amplitude of the ACh response: -3.3 μA
[3]; 1 mM ACh, single oocyte trace
  actual amplitude of the ACh response: -0.03 μA
